Experimental data from ChEMBL document CHEMBL1201862, “PubChem BioAssay data set” (2004).
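Growth conditions: 96-well plates. Treatment: test compound, 48 hours, 5 concentrations. Analysis: linear interpolation between bracketing concentrations; unreached endpoints set to highest concentration. The concentration for 50% growth inhibition is given as GI50.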 The source made the active and inactive calls. No stated cut-off is given here; in the data, active = GI50 up to about 1.1 µM and inactive = higher.

How the values were obtained:
Test in all cases: NCI-60 cell line screen, 48 h
OVCAR-3 = test system: OVCAR-3
NCI-H226 = test system: NCI-H226
SF-295 = test system: SF-295
SK-MEL-2 = test system: SK-MEL-2
OVCAR-4 = test system: OVCAR-4
EKVX = test system: EKVX
CAKI-1 = test system: CAKI-1
SW-620 = test system: SW-620
T47D = test system: T47D
TK-10 = test system: TK-10
HCT-15 = test system: HCT-15
ACHN = test system: ACHN
HCT-116 = test system: HCT-116
A498 = test system: A498
MDA-MB-435 = test system: MDA-MB-435
SK-MEL-5 = test system: SK-MEL-5
786-0 = test system: 786-0
COLO 205 = test system: COLO 205
OVCAR-5 = test system: OVCAR-5
SF-539 = test system: SF-539

Structure (SMILES)	GI50 (OVCAR-3)	GI50 (NCI-H226)	GI50 (SF-295)	GI50 (SK-MEL-2)	GI50 (OVCAR-4)	GI50 (EKVX)	GI50 (CAKI-1)	GI50 (SW-620)	GI50 (T47D)	GI50 (TK-10)	GI50 (HCT-15) [µM]	GI50 (ACHN)	GI50 (HCT-116)	GI50 (A498)	GI50 (MDA-MB-435)	GI50 (SK-MEL-5)	GI50 (786-0)	GI50 (COLO 205)	GI50 (OVCAR-5)	GI50 (SF-539)
CC1=NN(C(=O)c2ccccc2O)C(=O)/C1=C/c1ccccc1O	0.215 µM (active)	0.977 µM (active)	0.0736 µM (active)	6.4 µM (inactive)	1.08 µM (active)	1.78 µM (inactive)	1.53 µM (inactive)	1.54 µM (inactive)	0.225 µM (active)	15.2 µM (inactive)	0.292	0.0695 µM (active)	0.107 µM (active)	0.0327 µM (active)	0.0612 µM (active)	1.06 µM (active)	0.521 µM (active)	20.7 µM (inactive)	3.74 µM (inactive)	0.132 µM (active)
CC(C)(C)c1ccc(CN2CCN(C(c3ccccc3)c3ccc(Cl)cc3)CC2)cc1 (stereo not given)	58.7 µM (inactive)	22.1 µM (inactive)	37.9 µM (inactive)	31 µM (inactive)	> 100 µM (inactive)	32.1 µM (inactive)	> 100 µM (inactive)	> 100 µM (inactive)	24.2 µM (inactive)	> 100 µM (inactive)	29.9	68.5 µM (inactive)	25.7 µM (inactive)	> 100 µM (inactive)	57.9 µM (inactive)	27 µM (inactive)	42.4 µM (inactive)	38.8 µM (inactive)	60.1 µM (inactive)	30.3 µM (inactive)
Nc1nc(N)c2nc(CNc3ccc(C(=O)O)cc3)[nH]c2n1	> 100 µM (inactive)	> 100 µM (inactive)	> 100 µM (inactive)	> 100 µM (inactive)	> 100 µM (inactive)	> 100 µM (inactive)	> 100 µM (inactive)	> 100 µM (inactive)	> 100 µM (inactive)	> 100 µM (inactive)	> 100	> 100 µM (inactive)	> 100 µM (inactive)	> 100 µM (inactive)	> 100 µM (inactive)	> 100 µM (inactive)	> 100 µM (inactive)	> 100 µM (inactive)	> 100 µM (inactive)	> 100 µM (inactive)
CC1=CC=CC(C)(C)CC1(O[Si](C)(C)C)C(F)(F)F (stereo not given)	> 100 µM (inactive)	> 100 µM (inactive)	> 100 µM (inactive)	> 100 µM (inactive)	> 100 µM (inactive)	82.6 µM (inactive)	> 100 µM (inactive)	> 100 µM (inactive)	> 100 µM (inactive)	> 100 µM (inactive)	> 100	> 100 µM (inactive)	> 100 µM (inactive)	> 100 µM (inactive)	> 100 µM (inactive)	> 100 µM (inactive)	> 100 µM (inactive)	72.3 µM (inactive)	> 100 µM (inactive)	> 100 µM (inactive)
COC(=O)c1ccccc1C1CN=NC12Cc1c(C)cc(C)cc1C2=O (stereo not given)	> 100 µM (inactive)	> 100 µM (inactive)	> 100 µM (inactive)	> 100 µM (inactive)	> 100 µM (inactive)	> 100 µM (inactive)	> 100 µM (inactive)	> 100 µM (inactive)	> 100 µM (inactive)	> 100 µM (inactive)	> 100	> 100 µM (inactive)	> 100 µM (inactive)	> 100 µM (inactive)	> 100 µM (inactive)	> 100 µM (inactive)	> 100 µM (inactive)	> 100 µM (inactive)	> 100 µM (inactive)	> 100 µM (inactive)
COc1ccc2c(CCNS(=O)(=O)c3ccccc3)c(C(C)=O)[nH]c2c1	> 100 µM (inactive)	> 100 µM (inactive)	80.4 µM (inactive)	> 100 µM (inactive)	51.6 µM (inactive)	> 100 µM (inactive)	1 µM (active)	> 100 µM (inactive)	> 52.2 µM (inactive)	> 100 µM (inactive)	> 75.2	3.15 µM (inactive)	45.3 µM (inactive)	> 62.7 µM (inactive)	12.3 µM (inactive)	> 42.8 µM (inactive)	49.5 µM (inactive)	> 73.6 µM (inactive)	> 88.9 µM (inactive)	82.4 µM (inactive)
O=C1C=C(Nc2ccccc2C(=O)CC(=O)C(=O)Nc2cccc(C(F)(F)F)c2)c2ccccc2C1=O	6.35 µM (inactive)	61.5 µM (inactive)	21.3 µM (inactive)	16.8 µM (inactive)	17.9 µM (inactive)	37.8 µM (inactive)	64 µM (inactive)	27.6 µM (inactive)	> 100 µM (inactive)	> 96.4 µM (inactive)	19.5	28.3 µM (inactive)	23 µM (inactive)	> 100 µM (inactive)	7.5 µM (inactive)	15.8 µM (inactive)	25.8 µM (inactive)	66.8 µM (inactive)	> 77.1 µM (inactive)	22.5 µM (inactive)
